The source of these data is US20070037752A1, “Novel alanyl-amino peptidase inhibitors for functionally influencing different cells and treating immunological, inflammatory, neuronal, and other diseases” (priority 2003, published 2007).

Like-named read-outs stand apart in the source and are kept apart here.

This assay concerns the target alanyl aminopeptidases (APN) (Homo sapiens, UniProt P15144). Description: Inhibition of alanyl aminopeptidase enzymatic activity, fluorogenic substrate (Ala)2-rhodamine 110. It counts as biochemical. As for the experimental part: The inhibition characteristics measured are referred to as IC-50 values or ID50 values (the latter marked with “*”) for said enzyme. The enzymatic activity was determined by means of the fluorogenic substrate/product (Ala)2-rhodamine 110.

[1] abbreviates: Table 8, starred values = ID50, read-out: ID50 APN (values marked with *).
[2] abbreviates: Table 8, unstarred values, read-out: IC50APN.
Where [3] appears, read: Table 9, starred values = ID50, read-out: ID50 APN (values marked with *).
The mark [4] stands for this setting: Table 9, unstarred values, read-out: IC50APN.

Sequence of alanyl aminopeptidases (APN) (P15144 whole entry, species assumed): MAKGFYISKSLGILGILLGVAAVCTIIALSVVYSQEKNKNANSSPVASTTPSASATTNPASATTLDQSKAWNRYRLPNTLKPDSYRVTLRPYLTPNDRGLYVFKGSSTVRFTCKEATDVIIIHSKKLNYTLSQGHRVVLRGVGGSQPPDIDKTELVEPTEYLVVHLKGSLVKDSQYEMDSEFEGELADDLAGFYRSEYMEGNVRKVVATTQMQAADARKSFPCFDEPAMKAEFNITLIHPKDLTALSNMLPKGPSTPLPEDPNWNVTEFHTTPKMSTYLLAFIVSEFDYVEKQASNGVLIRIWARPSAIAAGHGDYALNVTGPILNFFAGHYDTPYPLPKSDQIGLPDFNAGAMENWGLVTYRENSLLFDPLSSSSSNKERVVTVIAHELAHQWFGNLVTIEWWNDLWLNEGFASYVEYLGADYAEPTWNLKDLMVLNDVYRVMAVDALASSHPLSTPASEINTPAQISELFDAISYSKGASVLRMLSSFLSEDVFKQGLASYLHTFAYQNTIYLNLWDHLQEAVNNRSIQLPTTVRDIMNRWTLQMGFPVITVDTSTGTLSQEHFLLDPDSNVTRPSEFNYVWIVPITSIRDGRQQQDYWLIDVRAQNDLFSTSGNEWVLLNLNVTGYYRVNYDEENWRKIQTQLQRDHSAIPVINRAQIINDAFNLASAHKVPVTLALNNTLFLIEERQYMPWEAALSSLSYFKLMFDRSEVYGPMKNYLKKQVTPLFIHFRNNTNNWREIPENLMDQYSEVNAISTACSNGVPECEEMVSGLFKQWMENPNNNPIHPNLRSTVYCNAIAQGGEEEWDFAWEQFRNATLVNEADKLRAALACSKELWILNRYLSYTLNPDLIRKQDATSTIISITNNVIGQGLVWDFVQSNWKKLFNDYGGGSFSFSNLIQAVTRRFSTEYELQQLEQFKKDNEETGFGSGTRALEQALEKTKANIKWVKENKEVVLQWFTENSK

Consider `Cc1ccc(S(=O)(=O)N2CCC(C(=O)N/N=C/c3ccco3)CC2)cc1` [A6.017], for which the IC50 (Table 6, read-out: IC50APN) came out at 69.3 µM.
For the compound `CN/C=C1\C=C(c2ccccc2)OC1=S` [A7.001], where the note is “Table 7, read-out: IC50APN”, the IC50 is 6 µM.
For the compound `CCc1cccc(CC)c1NC(=S)N/N=C1\C(=O)N(CN2CC(C)CC(C)C2)c2ccccc21` (centres unmarked) [A7.002], the IC50 (Table 7, read-out: IC50APN) worked out at 6.7 µM.
Consider `Cc1ccc(S(=O)(=O)CNC(=S)c2ccc3ccccc3c2)cc1` [A7.004], for which the IC50 (Table 7, read-out: IC50APN) worked out at 11.8 µM.
With `O=C(O)CSCC1NC(=S)N(c2ccccc2)C1=O` (centres unmarked) [A7.005], the IC50 (Table 7, read-out: IC50APN) worked out at 12 µM.
Still for that read-out and setting: to `O=C1C(Cc2c[nH]c3ccccc23)NC(=S)N1c1ccccc1` (centres unmarked) [A7.006] belongs 12.4 µM.
The same measure, in the same setting: the figure for `Cc1cccc(C)c1NC(=S)NC(=O)c1cccs1` [A7.007] is 12.9 µM; for `CSCCC1NC(=S)N(Cc2ccccc2)C1=O` (centres unmarked) [A7.008] it is 14.1 µM.
Still for that read-out and setting: the figure for `Cc1ccc(S(=O)(=O)CNC(=S)c2ccc(Cl)c(Cl)c2)cc1` [A7.010] is 18 µM.
In the case of `O=C1C(Cc2ccc(O)cc2)NC(=S)N1C1CCCCC1` (centres unmarked) [A7.011], the IC50 (Table 7, read-out: IC50APN) was 21.3 µM.
The same measure, in the same setting: the figure for `O=C1C(Cc2ccc3[nH]ccc3c2)NC(=S)N1c1ccccc1` (centres unmarked) [A7.012] is 36.9 µM.
With `CCOC(=O)c1ncn(C(=O)OC)c1N` [A8.001], under setting [1], the IC50 was 0.9 µM.
As to `C/C(Cn1nnc([N+](=O)[O-])n1)=N/NC(=O)COc1ccccc1[N+](=O)[O-]` [A8.002], the IC50 under setting [2] was 3.4 µM.
For `COC(=O)C1=C(C(=O)OC)C(c2cc(Br)ccc2O)c2sc(O)nc2S1` (centres unmarked) [A8.003], the IC50 under setting [2] came to 4.7 µM.
The same measure, in the same setting: to `CCc1cccc(CC)c1NC(=S)N/N=C1\C(=O)N(CN2CC(C)CC(C)C2)c2ccccc21` (centres unmarked) [A8.004] belongs 6.7 µM; to `CCOC(=O)N1CCc2c(sc(NC(=O)c3ccc(F)cc3)c2C(=O)Nc2ccc(Br)cc2)C1` [A8.005], 7.3 µM; to `CC1SC(N/N=C/c2ccco2)=NC1=O` (centres unmarked) [A8.006], 8 µM.
Turning to `CC(C)CC1CC(=S)C(C2CCCCC2)C1=O` (centres unmarked) [A8.007], the IC50 under setting [2] amounted to 8 µM.
Same read-out and setting: the figure for `CC(C)(C)OC(=O)N/N=C\C=C\c1ccco1` [A8.008] is 10.8 µM; for `O=C1C(Cc2c[nH]c3ccccc23)NC(=S)N1c1ccccc1` (centres unmarked) [A8.009] it is 12.4 µM; for `Cc1cccc(C)c1NC(=S)NC(=O)c1cccs1` [A8.010] it is 12.9 µM.
Same read-out and setting: to `COC(=O)N/N=C(C)\C=C\c1ccco1` [A8.011] belongs 13.5 µM; to `CSCCC1NC(=S)N(Cc2ccccc2)C1=O` (centres unmarked) [A8.012], 14.1 µM.
On the same count and under the same terms, to `Cn1c(=O)c2c(nc3sccn32)n(C)c1=O` [A8.013] belongs 14.3 µM; to `CN(/N=C/c1sc(=O)[nH]c1Cl)c1ccccc1` [A8.014], 14.4 µM; to `Cc1cccc(C)c1Nc1c(-c2ccccc2NC(=O)Nc2ccccc2)nc2c(C(=O)NCc3ccc(F)cc3)cccn12` [A8.015], 14.9 µM.
Consider `O=C1C(Cc2ccc3[nH]ccc3c2)NC(=S)N1c1ccccc1` (centres unmarked) [A8.016], for which the IC50 under setting [2] worked out at 14.9 µM.
Turning to `CCOC(=O)CCCCC(=O)c1c(C)n(C(=O)c2ccc(N3C(=O)CCC3=O)cc2)c(=O)n1C(=O)c1ccc(N2C(=O)CCC2=O)cc1` [A8.017], the IC50 under setting [2] was found to be 15.6 µM.
Same read-out and setting: to `Cc1cc(=O)[nH]c(N/N=C/c2ccco2)n1` [A8.018] belongs 18.2 µM.
The same measure, in the same setting: to `O=C1C(Cc2ccc(O)cc2)NC(=S)N1C1CCCCC1` (centres unmarked) [A8.019] belongs 21.3 µM; to `O=C1C(Cc2ccccc2)NC(=S)N1c1ccccc1` (centres unmarked) [A8.020], 26.1 µM.
Still for that read-out and setting: the figure for `Cn1nc(-c2cccs2)nc2c(=O)n(C)c(=O)nc1-2` [A8.021] is 25 µM; for `Cc1ccc(/C=N/NC2=NC(=O)CS2)o1` [A8.022] it is 26.4 µM; for `Cn1c(=O)[nH]c2nnc(-c3cccs3)nc2c1=O` [A8.023] it is 22.6 µM.
Take `Cc1ccc(Cn2c(SCCC(=O)O)nc3c2c(=O)n(C)c(=O)n3C)cc1` [A8.025]: the IC50 under setting [2] is 28 µM.
Still for that read-out and setting: to `C/C(=N\N=C1\SC(CC(=O)O)C(=O)N1c1ccccc1)c1ccco1` (centres unmarked) [A8.026] belongs 28.6 µM.
On to `Cc1cccc(C)c1Nc1c(-c2ccccc2NC(=O)Nc2ccc(OC(F)(F)F)cc2)nc2c(C(=O)NCC(C)C)cccn12` [A8.027], for which, under setting [2], the IC50 came out at 31.4 µM.
Still for that read-out and setting: to `O=C1C(Cc2ccc3[nH]ccc3c2)NC(=S)N1c1ccccc1` (centres unmarked) [A8.029] belongs 36.9 µM; to `COc1cc(C)[n+](OC(=O)N(C)C)c(C)c1` [A8.030], 42.4 µM.
For `O=C(O)CC1S/C(=N/N=C/c2ccco2)NC1=O` (centres unmarked) [A8.031], the IC50 under setting [1] is 48.1 µM.
Take `NC(=S)N/N=C/c1ccco1` [A8.032]: the IC50 under setting [2] was 50 µM.
On to `Cc1ccc(Cn2c(SCCC(=O)O)nc3c2c(=O)[nH]c(=O)n3C)cc1` [A8.033], for which, under setting [1], the IC50 was found to be 53.2 µM.
For the compound `CC1=NC(N)=NC(C)(C)N1c1c(Cl)cccc1Cl` [A8.034], under setting [2], the IC50 turned out to be 59.8 µM.
On the same count and under the same terms, the figure for `O=C1C(Cc2ccc(O)cc2)NC(=S)N1c1ccccc1` (centres unmarked) [A8.035] is 66.6 µM.
As for `CC(=O)C1C(c2ccc(N(C)C)cc2)C2C(=O)N(C3CCCCC3)C(=O)N2C1c1sccc1C` (centres unmarked) [A8.036], the IC50 under setting [2] turned out to be 68 µM.
For `Cn1c(=O)c2c(ncn2CC(=O)N/N=C/C=C\c2ccco2)n(C)c1=O` [A8.037], the IC50 under setting [1] is 79.8 µM.
As for `Cc1cccc[n+]1OC(=O)N1CCCCC1` [A8.038], under setting [1], the IC50 came to 96.7 µM.
As to `CCCC1NC(=S)N(c2ccccc2)C1=O` (centres unmarked) [A8.040], the IC50 under setting [1] was 154 µM.
Same read-out and setting: the figure for `COc1ccc(C2C(C(=O)c3ccccc3)C(c3ccccc3)C(C(=O)NCc3ccc(F)cc3)N2C(=O)NC2CCCCC2)cc1` (centres unmarked) [A8.041] is 231 µM.
On to `COC(=O)C1=C(N)N2C(=O)CSC2=C(C(=O)OC)C1` [A9.001], for which, under “Table 9, unstarred values”, the IC50APN result was “‘very high ac- tive’, beyond measure”.
Regarding `CC1=C(C#N)C(=O)N(CCO)C(=O)/C1=C\c1ccc(-c2cc(Cl)ccc2Cl)o1` [A9.002], the IC50 under setting [3] is 1.2 µM.
The same measure, in the same setting: the figure for `O=C1c2ccccc2-c2c1[n+]([O-])c1c([n+]2[O-])CCCC1` [A9.003] is 2 µM; for `CCOC(=O)c1ccc(-c2ccc(/C=C3\C(=O)N(CCO)C(=O)C(C#N)=C3C)o2)cc1` [A9.005] it is 2.7 µM.
For the compound `COC(=O)C1=C(C(=O)OC)C(c2cc(Br)ccc2O)c2sc(O)nc2S1` (centres unmarked) [A9.006], under setting [4], the IC50 amounted to 4.7 µM.
On the same count and under the same terms, to `COc1ccc(/C=N/NC(=O)C2=C(C)Nc3ccccc3S2)cc1Cn1nc(C)c(Br)c1C` [A9.007] belongs 4.8 µM; to `COC(=O)c1ccc(-c2ccc(/C=C3\C(=O)N(CCCO)C(=O)C(C#N)=C3C)o2)cc1` [A9.008], 5 µM; to `CC1CCN(C(=O)/C(=C\c2ccco2)NC(=O)c2ccc(Cl)cc2)CC1` [A9.009], 6.2 µM.
With `COC(=O)c1cccc(-c2ccc(/C=C3\C(=O)N(CCO)C(=O)C(C#N)=C3C)o2)c1` [A9.010], the IC50 under setting [4] was found to be 6.3 µM.
Still for that read-out and setting: the figure for `CCc1cccc(CC)c1NC(=S)N/N=C1\C(=O)N(CN2CC(C)CC(C)C2)c2ccccc21` (centres unmarked) [A9.011] is 6.7 µM; for `COC(=O)C1=C(N)N2C(=O)CSC2=C(C(=O)OC(C)C)C1` [A9.012] it is 5.9 µM; for `CCOC(=O)N1CCc2c(sc(NC(=O)c3ccc(F)cc3)c2C(=O)Nc2ccc(Br)cc2)C1` [A9.013] it is 7.3 µM.
Still for that read-out and setting: the figure for `CC(=O)NC1OCC(O)C(O)C1O` (centres unmarked) [A9.014] is 7.3 µM.
Turning to `COc1ccc(Cl)cc1C(=O)N/C(=C/c1ccco1)C(=O)N1CC2CC(C1)c1cccc(=O)n1C2` (centres unmarked) [A9.015], the IC50 under setting [4] is 8.1 µM.
For `c1coc(-c2nc3cc4ccccc4cc3nc2-c2ccco2)c1` [A9.016], the IC50 under setting [4] came to 8.9 µM.
As to `N#Cc1cc(N2CC3CC(C2)c2cccc(=O)n2C3)c([N+](=O)[O-])cc1C#N` (centres unmarked) [A9.017], the IC50 under setting [4] was determined as 8.9 µM.
Same read-out and setting: the figure for `COc1ccc2c(C)nc(Nc3nc(C)c4ccccc4c(=O)n3)nc2c1` [A9.018] is 8.9 µM; for `CC1=C(C#N)C(=O)N(CCCO)C(=O)/C1=C\c1ccc(-c2cc(C)c(C)cc2[N+](=O)[O-])o1` [A9.019] it is 9.7 µM.
Same read-out and setting: to `Cc1ccc(/C=N\NC(=O)c2cnccn2)o1` [A9.020] belongs 9.8 µM.
Consider `CCCCOC(=O)c1cccc(-c2ccc(/C=C3\C(=O)N(CCO)C(=O)C(C#N)=C3C)o2)c1` [A9.021], for which the IC50 under setting [3] was determined as 10.2 µM.
For the compound `O=C(N/C(=C\c1ccco1)C(=O)N1CCCCC1)c1ccco1` [A9.022], the IC50 under setting [4] turned out to be 10.6 µM.
Consider `Cc1ccc(C(=O)N/C(=C\c2ccco2)C(=O)N2CC3CC(C2)c2cccc(=O)n2C3)cc1` (centres unmarked) [A9.023], for which the IC50 under setting [4] was determined as 11 µM.
Still for that read-out and setting: to `CN(C)CCCN1CCN(c2nc(N(C)CC(=O)O)c3ncn(Cc4ccc([N+](=O)[O-])cc4)c3n2)CC1` [A9.024] belongs 11.8 µM; to `Cc1[nH]c2ccccc2c1C(c1cc(Cl)ccc1O)N1CCOCC1` (centres unmarked) [A9.025], 11.7 µM.
Same read-out and setting: the figure for `Cc1ccc(C(=O)N/C(=C\c2ccco2)C(=O)N2CC3CC(C2)c2cccc(=O)n2C3)cc1C` (centres unmarked) [A9.026] is 11.8 µM.
As for `CC(C)COc1ccc(C(=O)N/C(=C\c2ccco2)C(=O)N2CCOCC2)cc1` [A9.027], the IC50 under setting [4] was 13.1 µM.
The same measure, in the same setting: to `O=C(O)c1cc2nc(-c3ccco3)cc(C(F)(F)Cl)n2n1` [A9.028] belongs 13.2 µM; to `O=C(N/C(=C\c1ccco1)C(=O)N1CCOCC1)c1ccco1` [A9.029], 13.5 µM; to `O=C1C2=[N+]([O-])C3CCCCC3[N+]([O-])=C2c2ccccc21` (centres unmarked) [A9.030], 13.7 µM.
Take `N/C(=N/OS(=O)(=O)c1ccc(C(F)(F)F)cc1)C1CSCCS1` (centres unmarked) [A9.031]: the IC50 under setting [4] was found to be 13.4 µM.
Regarding `O=C(CCCCCN1C(=O)c2cccc3cccc(c23)C1=O)NO` [A9.032], the IC50 under setting [4] was found to be 14.1 µM.
Regarding `COc1nncc(-c2cnnc(SC)n2)n1` [A9.033], under setting [4], the IC50 amounted to 14.3 µM.
Consider `Clc1ccc(-n2cc3c(-c4ccco4)nnc(-c4nc5ccccc5s4)c3n2)cc1` [A9.034], for which the IC50 under setting [4] was 14.3 µM.
As for `O=c1[nH]c(/C=C/c2ccco2)nc2ccccc12` [A9.035], the IC50 under setting [4] is 14.6 µM.
